Experimental data from ChEMBL document CHEMBL3822454, “On the vasoprotective mechanisms underlying novel β-phosphorylated nitrones: Focus on free radical characterization, scavenging and NO-donation in a biological model of oxidative stress” (Eur J Med Chem, 2016).
The source made the active and inactive calls. The rule behind the calls is not given here.

Columns and labels:
[1] = Cytotoxicity against BAECs assessed as decrease in total intracellular LDH content at 15 mM measured after 3 hrs by LDH assay relative to vehicle control; type: cell-based, Bos taurus; parameters: scale not given: the % may be the effect or the level left; settings: cattle, baec, 15000 µM
[2] = test system: Aorta; assay: Potentiation of SNP-induced vasorelaxant activity in Sprague-Dawley rat endothelium-intact aortic rings assessed as reduction in L-phenylephrine hydrochloride-induced contraction at 200 uM relative to SNP; type: functional
[3] = test system: Aorta; assay: Protection against NADPH-induced superoxide-mediated tissue damage in Sprague-Dawley rat endothelium-intact aortic rings assessed as inhibition of protein carbonyl formation at 200 uM pre-incubated for 30 mins in presence of DTC prior to NADPH addition measured after 60 mins using 7-hydrazino-4-nitrobenzo-2,1,3-oxadiazole by fluorimetric analysis; type: functional
[4] = test system: Aorta; assay: (§1) Protection against NADPH-induced superoxide-mediated tissue damage in Sprague-Dawley rat endothelium-intact aortic rings assessed as decomposition of methyl radical adduct preincubated for 30 mins at 200 uM in presence of DTC prior to NADPH addition after 60 mins followed by renewal of media with NADPH-compound mixture measured after 4 days by EPR spectroscopy relative to control; type: functional
[5] = test system: Aorta; assay: Protection against superoxide-mediated tissue damage in Sprague-Dawley rat endothelium-intact aortic rings assessed as methyl radical adduct formation preincubated for 30 mins at 200 uM in presence of DTC measured after 4 days by EPR spectroscopy; type: functional
[6] = Cytotoxicity against BAEC assessed as decrease in total intracellular LDH content at 15 mM measured after 1 hr by LDH assay relative to vehicle-treated control; type: cell-based, Bos taurus; parameters: scale not given: the % may be the effect or the level left; settings: cattle, 15000 µM
[7] = test system: Aorta; assay: Toxicity in Sprague-Dawley rat endothelium-intact aortic rings at 15 mM measured after 20 mins; settings: 15000 µM
[8] = test system: Aorta; assay: as §1, with “as” for “as decomposition of”, “formation pre-incubated” for “preincubated”, “addition measured” for “addition”, “20 mins in presence of DPI” for “4 days”, “spectroscopy” for “spectroscopy relative to control”; type: functional
[9] = Antioxidant activity assessed as DPPH scavenging activity measured after 3 mins by spectrophotometric method; type: physicochemical
[10] = Antioxidant activity assessed as AAPH free radical scavenging activity measured as trolox equivalent by TRAP assay; type: physicochemical
[11] = Antioxidant activity assessed as inhibition of […]-xanthine oxidase system-mediated superoxide formation measured over 7 mins by lucigenin-based chemiluminescence analysis; type: physicochemical
[12] = target: Xanthine dehydrogenase/oxidase (Homo sapiens, UniProt P47989); assay: Inhibition of xanthine oxidase (unknown origin) using xanthine as substrate assessed as inhibition of uric acid formation at 1 to 100 uM after 30 mins by spectrophotometric method; settings: 0.5 h
Xanthine dehydrogenase/oxidase, sequence (P47989 whole entry): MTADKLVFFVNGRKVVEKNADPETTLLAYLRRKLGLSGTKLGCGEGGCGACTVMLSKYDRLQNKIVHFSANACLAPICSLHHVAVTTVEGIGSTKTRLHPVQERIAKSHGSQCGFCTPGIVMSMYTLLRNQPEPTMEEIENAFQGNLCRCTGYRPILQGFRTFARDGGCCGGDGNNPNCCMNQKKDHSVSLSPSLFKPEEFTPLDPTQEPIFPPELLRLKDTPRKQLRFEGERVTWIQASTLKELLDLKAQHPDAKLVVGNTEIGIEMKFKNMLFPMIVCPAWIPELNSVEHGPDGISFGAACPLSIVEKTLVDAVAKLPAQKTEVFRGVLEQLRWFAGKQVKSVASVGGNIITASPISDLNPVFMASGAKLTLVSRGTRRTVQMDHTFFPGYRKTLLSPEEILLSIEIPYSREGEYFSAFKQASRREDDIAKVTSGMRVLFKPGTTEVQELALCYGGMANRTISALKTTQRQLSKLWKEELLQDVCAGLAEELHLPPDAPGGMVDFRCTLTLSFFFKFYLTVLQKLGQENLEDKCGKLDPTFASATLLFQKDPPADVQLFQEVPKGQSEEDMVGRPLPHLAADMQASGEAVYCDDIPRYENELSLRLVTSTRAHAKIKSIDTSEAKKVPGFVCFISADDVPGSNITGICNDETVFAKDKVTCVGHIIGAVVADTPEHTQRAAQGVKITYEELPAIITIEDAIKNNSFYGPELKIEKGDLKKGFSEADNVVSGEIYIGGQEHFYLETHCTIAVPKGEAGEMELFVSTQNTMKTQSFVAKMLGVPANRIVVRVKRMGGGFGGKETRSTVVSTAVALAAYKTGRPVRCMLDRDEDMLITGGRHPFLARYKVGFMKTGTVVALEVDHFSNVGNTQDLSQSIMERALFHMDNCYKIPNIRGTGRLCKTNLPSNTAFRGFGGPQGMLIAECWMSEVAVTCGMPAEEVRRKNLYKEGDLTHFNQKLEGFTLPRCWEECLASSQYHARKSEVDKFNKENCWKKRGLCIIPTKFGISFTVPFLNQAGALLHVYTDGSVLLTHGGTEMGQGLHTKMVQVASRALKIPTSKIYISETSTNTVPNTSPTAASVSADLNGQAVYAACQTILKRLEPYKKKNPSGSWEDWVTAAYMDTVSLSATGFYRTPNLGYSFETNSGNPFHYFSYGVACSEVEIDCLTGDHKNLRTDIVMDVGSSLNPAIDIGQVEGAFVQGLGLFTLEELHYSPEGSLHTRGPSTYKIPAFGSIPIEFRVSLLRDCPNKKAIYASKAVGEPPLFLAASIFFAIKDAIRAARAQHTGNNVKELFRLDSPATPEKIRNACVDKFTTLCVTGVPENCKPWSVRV

[13] = test system: A549; assay: Cytotoxicity against human A549 cells assessed as reduction in cell viability measured after 48 hrs by FMCA assay; type: cell-based; settings: A549, 48 h
[14] = test system: A549; assay: Cytotoxicity against human A549 cells assessed as reduction in cell viability measured after 48 hrs by luminescence-based ATP assay; settings: A549, 48 h
[15] = test system: A549; assay: Cytotoxicity against human A549 cells assessed as reduction in cell viability measured after 48 hrs by MTT assay; type: cell-based; settings: A549, 48 h
[16] = Cytotoxicity against BAEC assessed as reduction in cell viability measured after 24 hrs by MTT assay; parameters: species or system Bos taurus; settings: cattle
[17] = Induction of nitric oxide release in water using Fe2+-MGD2 as nitric oxide trap at pH 6.56 measured 70 mins post UV-photolysis in dark condition by EPR spectroscopy; type: physicochemical; settings: buffer, pH 6.56, 70 min
[18] = test system: Aorta; assay: (§2) Vasoprotective activity against oxidative stress-induced impairment of ACh-stimulated vasorelaxation in Sprague-Dawley rat endothelium-intact aortic rings assessed as reduction in L-phenylephrine hydrochloride-induced contraction preincubated for 10 to 20 mins in presence of xanthine-xanthine oxidase system prior to L-phenylephrine hydrochloride addition; type: functional
[19] = test system: Aorta; assay: as §2, with “system at 200 uM” for “system”, “addition relative to ACh” for “addition”; type: functional

Row | SMILES | Activity [1] [%] | Rmax [2] [%] | inhibition [3] | Activity [4] [%] | Activity [5] | Activity [6] [%] | Activity [7] | Activity [8] | EC50 [9] [µM] | Activity [10] [equiv] | IC50 [11] [µM] | inhibition (INH) [12] | IC50 [13] [µM] | IC50 [14] [µM] | IC50 [15] [µM] | IC10 [16] [µM] | Activity [17] | EC50 [18] [µM] | Rmax [19] [%]
1 | CCOP(=O)(OCC)C(C)(C)/[N+]([O-])=C/c1cccc(O)c1 | 26 | 99 | Active | 6 | inactive | < 10 | Non-toxic | inactive | > 1000 | 0.1 | 123 | Not Active | 7600 | 8300 | 7500 | 800 |  |  | 
2 | CCOP(=O)(OCC)C(C)(C)/[N+]([O-])=C/c1ccccc1O | 21 | 99 |  |  |  | < 10 | Non-toxic |  | > 1000 | 0.25 | 33.5 | Not Active | 8200 | 9300 | 9000 | 1400 |  |  | 
3 | CCOP(=O)(OCC)C(C)(C)/[N+]([O-])=C/c1ccccc1[N+](=O)[O-] | 54 | 100 |  |  |  | < 10 | Non-toxic |  | > 1000 | 0.02 | 30 | Not Active | 2200 | 1400 | 1300 | < 100 | Active |  | 
4 | O=C(O)c1cc(O)c(O)c(O)c1 [GALLIC ACID] |  |  |  |  |  |  |  |  | 7 | 1.18 | 0.7 |  | 400 | 400 | 400 | < 100 |  |  | 
5 | CCOP(=O)(OCC)C(C)(C)/[N+]([O-])=C/c1ccc(O)cc1O |  |  |  |  |  | < 10 | Non-toxic |  | > 1000 | 1.61 | 43.3 | Not Active |  |  |  |  |  |  | 
6 | CCOP(=O)(OCC)C(C)(C)/[N+]([O-])=C/c1ccc(O)c(OC)c1 | 23 | 100 | Active | < 5 | inactive | < 10 | Non-toxic | inactive | 254 | 1.91 | 28.6 | Not Active | 6400 | 4300 | 3900 | 700 |  | 0.0537 | 86
7 | CCOP(=O)(OCC)C(C)(C)/[N+]([O-])=C/c1ccccc1C(F)(F)F |  | 104 |  |  |  |  | Non-toxic |  | > 1000 | 0.02 | 4.2 | Not Active | 2200 | 2700 | 4200 | 400 | Active |  | 
8 | CCOP(=O)(OCC)C(C)(C)/[N+]([O-])=C/c1ccc(O)cc1 | 18 | 99 | Active | < 5 | inactive | < 10 | Non-toxic | inactive | > 1000 | 0.65 | 60.8 | Not Active | 10500 | 12400 | 13000 | 1600 |  |  | 
9 | COc1cc(/C=C/C(=O)O)cc(OC)c1O [SINAPINATE] |  |  |  |  |  |  |  |  | 35 | 1.64 | 22.4 |  | 4600 | 5700 | 4900 | 1200 |  |  | 
10 | CCOP(=O)(OCC)C(C)(C)/[N+]([O-])=C/c1ccc(O)c(O)c1 | 28 | 103 | Active | < 5 | inactive | < 10 | Non-toxic | inactive | 22 | 2.22 | 0.2 | Not Active | 1900 | 1900 | 1300 | 500 |  | 0.0407 | 93
11 | CCOP(=O)(OCC)C(C)(C)/[N+]([O-])=C/c1c(C)cccc1C |  | 105 | Active |  |  |  | Non-toxic |  | > 1000 | 0.02 | 350 | Not Active | 4700 | 5300 | 4400 | 500 | Active |  | 
12 | CCOP(=O)(OCC)C(C)(C)/[N+]([O-])=C/c1cccc([N+](=O)[O-])c1 |  |  |  |  |  | < 10 | Non-toxic |  | > 1000 | 0.02 | 52.3 | Not Active |  |  |  |  |  |  | 
13 | CCOP(=O)(OCC)C(C)(C)/[N+]([O-])=C/c1ccc(C(=O)O)cc1 |  |  |  |  |  |  |  |  | > 1000 | 0.02 | 4.1 | Not Active | 7900 | 8200 | 7300 | 1300 |  |  | 
14 | CCOP(=O)(OCC)C(C)(C)/[N+]([O-])=C/c1cc(O)c(O)c(O)c1 | 29 | 104 | Active | < 5 | inactive | < 10 | Non-toxic | inactive | 19 | 1.46 | 0.9 | Not Active | 600 | 600 | 700 | 200 |  | 0.0282 | 93
15 | Cc1c(C)c2c(c(C)c1O)CCC(C)(C(=O)O)O2 (stereo not drawn) [TROLOX] |  |  |  |  |  |  |  |  | 20 |  | 13.3 |  |  |  |  |  |  |  | 
16 | O=c1c(O)c(-c2ccc(O)c(O)c2)oc2cc(O)cc(O)c12 [QUERCETIN] |  |  |  |  |  |  |  |  | 13 | 6.28 | 0.5 |  |  |  |  |  |  |  | 
17 | O=C(O)/C=C/c1ccc(O)c(O)c1 [CAFFEIC ACID] |  |  |  |  |  |  |  |  | 17 | 2.73 | 0.1 |  | 500 | 700 | 700 | 200 |  |  | 
18 | CCOP(=O)(OCC)C(C)NC(C)(C)C (stereo not drawn) |  |  |  |  |  |  |  |  |  |  | > 40000 |  |  |  |  |  |  |  | 
19 | CCOC(=O)c1ccc(/C=[N+](\[O-])C(C)(C)P(=O)(OCC)OCC)cc1 |  |  |  |  |  |  |  |  | > 1000 | 0.16 | 6.8 | Not Active | 4500 | 3600 | 3500 | 400 |  |  | 
20 | CCOP(=O)(OCC)C(C)(C)/[N+]([O-])=C/c1ccc(NC(C)=O)cc1 |  |  |  |  |  |  |  |  | > 1000 | 0.02 | 26.3 | Not Active |  |  |  |  |  |  | 
21 | CCOP(=O)(OCC)C(C)(C)/[N+]([O-])=C/c1ccc([N+](=O)[O-])cc1 | 53 | 101 |  |  |  | < 10 | Non-toxic |  | > 1000 | 0.02 | 9.3 | Not Active | 1100 | 1000 | 1200 | < 100 |  |  | 
22 | COc1cc(/C=C/C(=O)O)ccc1O [FERULATE] |  |  |  |  |  |  |  |  | 61 | 2.16 | 34.9 |  | 2600 | 3200 | 3100 | 800 |  |  | 
23 | CCOP(=O)(OCC)C(C)(C)/[N+]([O-])=C/c1cc(O)cc(O)c1 | 23 | 98 | Active | < 5 | inactive | < 10 | Non-toxic | inactive | > 1000 | 0.7 | 187 | Not Active | 4900 | 7000 | 7900 | 600 |  |  | 
